Laboratory results as given in ChEMBL document CHEMBL2150891, “Compounds and Their Use as BACE Inhibitors: Patent Highlight” (ACS Med Chem Lett, 2012).

Columns and labels:
[1] = molecular target: T1, Beta-secretase 1 (Homo sapiens, UniProt P56817); assay: Inhibition of BACE by secreted APPbeta release assay
[2] = molecular target: T1, Beta-secretase 1; assay: Inhibition of BACE by TR-FRET assay

T1 sequence (P56817 whole entry): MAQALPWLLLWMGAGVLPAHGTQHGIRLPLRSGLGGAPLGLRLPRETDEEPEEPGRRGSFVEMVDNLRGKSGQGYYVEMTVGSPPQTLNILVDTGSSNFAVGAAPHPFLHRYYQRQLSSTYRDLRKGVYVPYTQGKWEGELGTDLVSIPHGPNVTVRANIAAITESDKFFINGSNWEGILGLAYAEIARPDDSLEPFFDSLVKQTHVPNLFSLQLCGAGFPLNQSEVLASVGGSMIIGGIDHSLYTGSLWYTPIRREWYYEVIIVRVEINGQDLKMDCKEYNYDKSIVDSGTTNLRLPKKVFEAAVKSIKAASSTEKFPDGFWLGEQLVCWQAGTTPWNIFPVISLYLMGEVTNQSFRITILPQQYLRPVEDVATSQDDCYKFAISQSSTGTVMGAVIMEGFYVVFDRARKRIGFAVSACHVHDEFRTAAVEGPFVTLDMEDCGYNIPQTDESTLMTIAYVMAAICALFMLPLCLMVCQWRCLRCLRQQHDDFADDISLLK

Question: How did the IC50 [1] turn out when `CC#Cc1cncc(-c2ccc3c(c2)C2(N=C(C)C(N)=N2)C2(CCC(OC)CC2)O3)c1` (configuration not stated) was run?
Answer: The IC50 was 2.2 nM.

Question: What about the IC50 [2] of the same compound?
Answer: The IC50 was 1.4 nM.
